Laboratory results as given in paper PMC3172709 (Journal of pharmacy & pharmaceutical sciences : a …, 2011).
“And” between values parts separate entries of the source, which are not always exact repeats. Equal values may be shown once. Read-outs that look alike come from different tables or passages of the source.

Columns and labels:
P-gp [1] = assay: in vitro; conditions: human, EC50 to up-regulate P-gp expression
P-gp [2] = system: P-gp
[3] = ref Facts & Comparisons 4.0, online edition, cited from earlier work
MDR1 mRNA = conditions: LS-180 cells, 48 h, 50 μM
P-gp [4] = assay: in vitro; conditions: human, EC50 to up-regulate P-gp activity
P-gp [5] = assay: Western blot analysis of P-gp protein expression in drug-treated LS-180 cells
P-gp [6] = conditions: rat, three-day in vivo treatment, 20 mg/kg once daily; cited from earlier work

Compound: Cn1c(=O)c2c(ncn2C)n(C)c1=O [Caffeine, caffeine]
- EC50 at 48 h (P-gp [1]): 9.1 µM
- increase in P-gp activity (P-gp [2]): 250–300%
- plasma concentration, range ([3]; after 250 mg dose): 25 to 130 µM

Compound: C[C@@H]1C[C@H]2[C@@H]3CCC4=CC(=O)C=C[C@]4(C)[C@@]3(F)[C@@H](O)C[C@]2(C)[C@@]1(O)C(=O)CO [Dexamethasone, dexamethasone]
- EC50 at 48 h (P-gp [1]): 46 µM

Compound: C1CCc2nnnn2CC1 [Pentylenetetrazole, pentylenetetrazole]
- fold increase in MDR1 mRNA level (MDR1 mRNA): ~ 3 fold and 3–4 fold
- induction in P-gp activity (P-gp [2]; LS-180 cells, 48 h, 50 μM): 70%
- increase in P-gp activity (P-gp [2]; LS-180 cells, 48 h, concentration range 25–100 μM): ~ 80%
- increase in P-gp activity (P-gp [2]; LS-180 cells, 48 h, concentration range 25–100 μM, listed as pentylenetetrazole): 80%
- Emax (fold ↑ in P-gp activity) (P-gp [2]; LS-180 cells, 48 h, four-parameter Hill fit): 2.0 fold
- EC50 at 48 h (P-gp [4]): 11.8 µM
- increase in P-gp expression (P-gp [5]; 48 h, 50 μM): ~ 10%
- increase in P-gp expression (P-gp [5]; 48 h, 100 μM): 100%
- up-regulation of P-gp protein levels (P-gp [5]; 48 h, concentrations at 50 μM and higher): ≤ 2 fold
- EC50 at 48 h (P-gp [5]; human, EC50 to up-regulate P-gp expression, following normalization to 100%): > 50 µM

Compound: CO[C@H]1/C=C/O[C@@]2(C)Oc3c(C)c(O)c4c(O)c(c(/C=N/N5CCN(C)CC5)c(O)c4c3C2=O)NC(=O)/C(C)=C\C=C\[C@H](C)[C@H](O)[C@@H](C)[C@@H](O)[C@@H](C)[C@H](OC(C)=O)[C@@H]1C [Rifampicin]
- EC50 at 48 h (P-gp [1]): 5 µM
- increase in P-gp activity (P-gp [2]; LS-180 cells, 48 h, over the range 5–100 μM): 60–290%
- plasma concentrations, range ([3]; following 600 mg dose): 5 to 38 µM

Compound: CC(C)c1nc(CN(C)C(=O)N[C@H](C(=O)N[C@@H](Cc2ccccc2)C[C@H](O)[C@H](Cc2ccccc2)NC(=O)OCc2cncs2)C(C)C)cs1 [ritonavir]
- increase in P-gp expression at the BBB (P-gp [6]): 30%

Compound: hyperforin
- increase in P-gp activity (P-gp [2]; LS-180 cells, 48 h, 50 nM): 110%
- increase in P-gp activity (P-gp [2]; LS-180 cells, 48 h, 150 nM): 190%
